The text below walks through data of article PMC11087982, “In vitro and in vivo activities of a trithiolato-diRuthenium complex conjugated with sulfadoxine against the apicomplexan parasite Toxoplasma gondii” (International Journal for Parasitology: Drugs and Drug …, 2024).

Molecules are shown by their SMILES. Like-named read-outs stand apart in the source and are kept apart here.

In data set [1] the test system is Non-infected HFF. As to the kind of experiment: TMRE uptake assay (mitochondrial membrane potential), non-infected HFF. The data set is classed as cell-based, human. The conditions noted are these: 0.5 μM, 3.5 h. Here is the method: (§1) 5 × 10^5 HFF were seeded into T25 culture flasks in DMEM complete medium and maintained in culture for 72 h to reach ⁓80% confluency. HFF monolayers were left either non-infected or were infected with 2 × 10^5 T. gondii Me49 tachyzoites. After another 48 h, the medium was removed from infected and non-infected T25 flasks and was replaced either by medium containing 0.5 μM RU-SDX, or in the case of non-treated controls, medium containing 0.05% DMSO. As positive controls, the two mitochondrial uncouplers FCCP and CCCP were applied at a concentration of 80 and 50 μM, respectively. PYR was applied at 0.5 μM as a control drug not affecting the MMP, and RU-adenine, used as a conjugate shown earlier to impact on the mitochondrial ultrastructure in T. gondii ([Anghel et al., 2021]; [Desiatkina et al., 2022b]), was also tested at 0.5 μM ([Anghel et al., 2021]; [Desiatkina et al., 2022b]). […] Fluorescence was measured using a Hidex Sense microplate reader instrument ([…]) with the excitation wavelength 544/20 nm and emitted light collected at 590/20 nm. Value from wells belonging to the same experimental condition were summed and the mean TMRE uptake in each condition was calculated from three biological replicates.

Data set [2] deals with T. gondii-infected HFF. In words: TMRE uptake assay (mitochondrial membrane potential), T. gondii-infected HFF. The format is cell-based, Toxoplasma gondii Me49 in human HFF. Particulars: 0.5 μM, 3.5 h. As to the method: as §1
The subject of data set [3] is T. gondii β-gal tachyzoites. Particulars: 2021, cited from earlier work.
In data set [4] the test system is HFF. As to the kind of experiment: HFF host cell cytotoxicity, Alamar blue viability assay. The data set is classed as cell-based, human. The conditions noted are these: 72 h, uninfected HFF. As to the method:
(§2) To determine cytotoxicity of compounds on host cells, HFF were grown to confluency in 96 well plates and were treated with different concentrations of the drugs solubilized in medium during 72 h at 37 °C/5% CO2, or were treated with the corresponding concentration of DMSO only ([Desiatkina et al., 2020]; [Holzer et al., 2023]; [Păunescu et al., 2021]). The Alamar blue viability assay was used as previously described ([Desiatkina et al., 2020], [2021], [2022a], [2022b]; [Holzer et al., 2023]; [Păunescu et al., 2021]). In short, resazurin was added to each well at 0.01 mg/ml, and subsequently fluorescence of the produced resorufin was measured at excitation wavelength 544/20 nm and emission wavelength 590/20 nm using a Hidex Sense microplate reader (Hidex, Turku, Finland).
(Resazurin is reduced to fluorescent resorufin, in cell work by metabolically active cells.)

Data set [5] deals with T. gondii β-gal tachyzoites. In words: T. gondii β-Gal tachyzoite proliferation in HFF monolayers (β-galactosidase fluorometric assay). The format is cell-based, Toxoplasma gondii. Here is the method:
Effects of drugs on the proliferative capacity of T. gondii tachyzoites were investigated using a transgenic T. gondii RH strain constitutively expressing β-Galactosidase (T. gondii β-Gal ([Dc et al., 1997]);). Assays were carried out in 96 well plates in the presence or absence of the different compounds. For the quantification of β-Galactosidase activity, a fluorometric assay was applied as previously described ([Desiatkina et al., 2021]; [Păunescu et al., 2021]).

Data set [6] in a line: HFF host cell cytotoxicity, Alamar blue viability assay. The data set is classed as cell-based, human. Particulars: human, uninfected HFF cells (confluent monolayer), read-out: viability (% of control ± SD). Here is the method: as §2

Consider `CCc1nc(N)nc(N)c1-c1ccc(Cl)cc1` [PYR, Pyrimethamine, reference compound], for which the figures for the “TMRE fluorescence intensity / TMRE uptake (percentage of non-treated control = 100%)” value in data set [1] and in data set [2] were 99% and 106%, respectively.
As for `CC(C)(C)c1ccc(C[S-])cc1.CC(C)(C)c1ccc(C[S-])cc1.Cc1ccc(C(C)C)cc1.Cc1ccc(C(C)C)cc1.O=C(O)Cc1ccc([S-])cc1.[Cl-].[Ru+2].[Ru+2]` [RU], the “proliferation (% of control ± SD)” value in data set [3] (1 μM, ref Păunescu et al.) is “^a110 ± 2%”; in data set [3] (1.1 μM, ref Păunescu et al.), “^a114 ± 2%”; in data set [5] (1.25 μM) it was “^∗64 ± 10%”; in data set [5] (2.5 μM), “^∗∗∗12 ± 2%”; in data set [5] (5 μM), “^∗∗∗0 ± 0%”. The results for the “viability (% of control ± SD)” value in data set [4] (2.5 μM), in data set [4] (5 μM) and in data set [4] (10 μM) were 100 ± 10%, 70 ± 10% and 0 ± 0%, respectively.
By viability is commonly meant a read-out of living cells in per cent, often relative to untreated cells. As to `COc1ncnc(NS(=O)(=O)c2ccc(N)cc2)c1OC` [SDX, Sulfadoxine], the “proliferation (% of control ± SD)” value in data set [3] (1 μM, ref Desiatkina et al.) is listed as “^b83 ± 2%”; in data set [3] (1.1 μM, ref Desiatkina et al.), “^b^, ^∗111 ± 3%”. Further, the viability at 72 h, 2.5 µM in data set [6] (2.5 μM) is 118 ± 6%. In data set [6] (5 μM), the viability at 72 h, 5 µM was found to be 106 ± 9%. For the same compound, the viability at 72 h, 10 µM in data set [6] (10 μM) turned out to be 93 ± 5%. The activity at 1.25 µM in data set [5] (Toxoplasma gondii, 1.25 μM, read-out: proliferation (% of control ± SD)) is 127%. Also, the activity at 2.5 µM in data set [5] (Toxoplasma gondii, 2.5 μM, read-out: proliferation (% of control ± SD)) is 113%. Besides, the activity at 5 µM in data set [5] (Toxoplasma gondii, 5 μM, read-out: proliferation (% of control ± SD)) was found to be 112%.
